Data taken from patent US6022536A, “Combined use of interleukin 10 and cyclosporin for immunosuppression therapy” (Schering Corporation, priority 1996, dated 2000).

Columns and labels:
Assay type in all cases: cell-based, human
[1] = tested on: IFN-γ; experiment: IFN-γ in supernatant of PBMC + PBMC MLR, ELISA; conditions: 60 hours; IL-10 100 U/ml; detection limit 25 pg/ml
Description: (§1) ELISA kits for cytokine production determination were purchased from R&D systems, Minneapolis, Minn.
(§2) To investigate the mechanism by which B cell line-induced MLR resists suppression by IL-10, the effect of IL-10 on cytokine synthesis in this MLR was examined. The presence of IL-2, IFN-γ and TNF-α in supernatants of MLR set up with and without IL-10 ([…]) for 60 hours was determined using ELISA kits.
(§3) ^a The MLR cultures were set up as described above using PBMC (1
(§4) × 10^6 /ml) as responder and mitomycin Ctreated JY cells (5
(§5) × 10^5 cell/) or allogeneic PBMC (5 × 10^5) as
(§6) stimulators in a 24well plate for 60 hours. IL10 was used at 100 U/ml and […]

[2] = tested on: indirect allostimulation of T cells; experiment: indirect allostimulation: MLR, APC depleted from the stimulator population; conditions: APC's depleted from the stimulator population
Description: (§7) Purified PBMC from human blood were collected in heparinated tubes by FICOLL gradient. The blood was diluted 1:1 with PBS. 30 ml of the diluted blood was laid on top of 20 ml Ficoll in a 50 ml conical tube and spun at 2,000 rpm for 30 minutes. The interface cells were collected and washed 3 times with medium (10% FCS/RPMI).
(§8) The plastic adherent antigen presenting cells (APC) were removed by resuspended PBMC in 1%. human serum (Type AB) at 1×10^6 cells/ml, and incubated at 37° C. for 30 min. The cells which floated were collected and placed in media (10% FCS/RPMI).
(§9) Nylon wool adherent APC were removed as follows:
(§10) A 10 ml syringe was packed with 1.5 g of nylon wool (Polysciences, Inc., Cat. #18369) and autoclaved. A 3-way stopcock and a 22-gauge needle were attached to the syringe, and the column was washed with 50 ml of prewarmed medium. A cell suspension of 5×10^7 cells/ml of […] was prepared in prewarmed medium. Just before adding the cell suspension, the wool was rinsed with 5 ml of prewarmed medium, the column was left to run dry, and the stopcock was closed. Cells (5-10×10^7) were added. The cells were allowed to penetrate the column, and the stopcock was closed. An additional 0.5 ml of medium was added and the column maintained at 37° C. for 45 minutes. […]

[3] = tested on: PBMC + Daudi; experiment: MLR with Daudi B cell line as stimulator, [3H]TdR uptake; conditions: IL-10 200 U/ml; medium 37357 ± 4497
Description: (§11) The stimulator PBMAC were treated with 50 μl mitomycin C (Sigma Chemical Co., St. Louis, Mo.) for 20 minutes at 37° C. The responder PBMC and the stimulator cells were added to a 96-well microtiter plate (Becton Dickinson, Lincoln Park, N.J.) at 1×10^5 cells per well of each, along with cytokines or antibodies in a total volume of 200 μl in triplets. The cultures were incubated at 37° C. with 5% CO2 in air for 6 days. The cultures were then pulsed with 1 μCi [^3 H]TdR (15.6CI/mmol, NEN, Boston, Mass.) per well for 16 hours. The cells were harvested onto a filter using a 96-well cell harvestor (Skatron, Inc., Sterling, Va.) and counted on a beta counter (Pharmacia LKB Nuclear Inc., Gaithersburg, Md.).
(§12) To address this question further, the ability of IL-10 to suppress the proliferation in MLR when allogeneic PBMC, purified B cells, monocytes or B cell lines were used as stimulators was studied.

[4] = tested on: IL-2; experiment: IL-2 in supernatant of JY-induced MLR, ELISA; conditions: 60 hours; IL-10 100 U/ml, CSA 40 ng/ml; PBMC JY alone 3006
Description: as §1, §2, §3, §4, §5, §6

[5] = tested on: IL-2; experiment: IL-2 in supernatant of PBMC + PBMC MLR, ELISA; conditions: 60 hours; IL-10 100 U/ml; detection limit 50 pg/ml
Description: as §1, §2, §3, §4, §5, §6

[6] = tested on: T cell proliferation in MLR (PBMC); experiment: one-way primary mixed lymphocyte reaction (MLR), PBMC + mitomycin-treated allogeneic PBMC, [3H]TdR uptake
Description: Human blood samples were collected in heparinized vacutainers. To facilitate removal of red blood cells (RBC), 2 ml of 6% dextran in phosphate buffered saline (PBS) (JRH Biosciences, Lenexa, Kans.) was added to each vacutainer, mixed and allowed to stand at room temperature for 30-45 min. The top buffy coat layer was carefully removed and cells centrifuged (300×g, 10 min., 4° C.). The cells were washed 3 times in 15 ml PBS. The peripheral blood mononuclear cells (PBMC) were isolated using a FICOLL-PAQUE (Pharmacia, Piscataway, N.J.) gradient. Ten ml of cells were layered on top of 4 ml FICOLL-PAQUE, centrifuged (1400×g, 20 min., room temperature) and the cells sedimenting at the interface were collected. These PBMC were washed 3 times in PBS, enumerated and resuspended in appropriate media for use in MLR experiments. […] Cell purity determined by staining with CD14 monoclonal antibodies and flow microfluorometric (FMF) analysis was 92% CD14^+. Viability determined by trypan blue exclusion was >95%.
The stimulator PBMAC were treated with 50 μl mitomycin C (Sigma Chemical Co., St. Louis, Mo.) for 20 minutes at 37° C. […] The cells were harvested onto a filter using a 96-well cell harvestor (Skatron, Inc., Sterling, Va.) and counted on a beta counter (Pharmacia LKB Nuclear Inc., Gaithersburg, Md.). […]

[7] = tested on: IFN-γ; experiment: IFN-γ in supernatant of JY-induced MLR, ELISA; conditions: 60 hours; IL-10 100 U/ml, CSA 40 ng/ml; PBMC JY alone 5715
Description: as §1, §2, §3, §4, §5, §6

[8] = tested on: PBMC + JY; experiment: MLR with JY B cell line as stimulator, [3H]TdR uptake
Description: as §11, §12

[9] = tested on: TNF-α; experiment: TNF-α in supernatant of PBMC + PBMC MLR, ELISA; conditions: 60 hours; IL-10 100 U/ml; detection limit 25 pg/ml
Description: as §1, §2, §3, §4, §5, §6

[10] = tested on: PBMC + B; experiment: MLR with purified normal B cells (CD20+) as stimulators, [3H]TdR uptake; conditions: IL-10 200 U/ml; medium 3939 ± 100
Description: as §11
(§13) The supernatant from the MLR was removed and the non-adherent PBMC harvested. The adherent cells were harvested by incubation with 5 mM EDTA at 4° C. for 20 minutes and gently scraped. Cells were combined, centrifuged at 300×g for 10 minutes and washed 3 times in ice-cold PBS. The viable cells were enumerated by Trypan Blue exclusion using a Neubaeur counting chamber, resuspended to 1×10^7 cell/ml in PBS and 100 μl of human IgG (1 mg/ml) was added to each well and incubated on ice. […] Mean channel fluorescence and percent positives for specific markers were determined using LYSIS II software (BDIS). […]

[11] = tested on: direct allostimulation of T cells; experiment: direct allostimulation: one way primary MLR, responder PBMCs depleted of APC; conditions: responder PBMCs depleted of APC's; similar with CD4+ or CD8+ responders
Description: as §7, §8, §9, §10

[12] = tested on: TNF-α; experiment: TNF-α in supernatant of JY-induced MLR, ELISA; conditions: 60 hours; IL-10 100 U/ml, CSA 40 ng/ml; PBMC JY alone 154
Description: as §1, §2, §3, §4, §5, §6

[13] = tested on: PBMC + monocytes; experiment: MLR with purified monocytes (CD14+) as stimulators; conditions: monocytes (98% CD14+) as stimulators, PBMC as responder
Description: as §11, §13

IL-10: human interleukin 10, a cytokine produced by T lymphocytes
Cytokine concentration IFN-γ [1]: < 25 pg/mL | inhibition of indirect allostimulation, compared with CSA [2]: stronger inhibitor to the indirect allostimulation than CSA | CPM (M ± SD), 3H-TdR uptake [3]: 45763 ± 3089 CPM | Cytokine concentration IL-2 [4]: 1294 pg/mL | Cytokine concentration IL-2 [5]: < 50 pg/mL | IC50 [6]: 8 pM | CPM (mean ± SD), 3H-TdR uptake ([6]; Human IL-10 100 U/ml, 19B1 and rat IgG at 2.5 U g/ml, untreated MLR 5127 ± 935): 643 ± 197 CPM | Cytokine concentration IFN-γ [7]: 2960 pg/mL | CPM (M ± SD), 3H-TdR uptake ([8]; IL-10 200 U/ml, medium 26222 ± 6293): 25182 ± 7302 CPM | suppression of JY-induced MLR ([8]; higher doses of IL-10 up to 1000 U/ml): did not suppress | Cytokine concentration TNF-α [9]: < 25 pg/mL | CPM (M ± SD), 3H-TdR uptake [10]: 182 ± 47 CPM | suppression of direct allostimulation, compared with CSA [11]: more suppression than CSA | Cytokine concentration TNF-α [12]: 209 pg/mL | suppression of MLR-induced proliferation [13]: strongly suppresses
